# From ChEMBL document CHEMBL1201862, “PubChem BioAssay data set” (2004)
# Active and inactive are the calls of the source.
# Assays:
# [1] = biological target: T1, Long-chain-fatty-acid--AMP ligase FadD28 (Mycobacterium tuberculosis, UniProt P9WQ59); assay: Fluorescence polarization aasay to screen for inhibitors that compete for the binding of FadD28 to a bisubstrate Measured in Biochemical System Using Plate Reader - 2147-01_Inhibitor_Dose_CherryPick_Activity.; type: functional, Mycobacterium tuberculosis H37Rv
# T1 sequence (P9WQ59 whole entry): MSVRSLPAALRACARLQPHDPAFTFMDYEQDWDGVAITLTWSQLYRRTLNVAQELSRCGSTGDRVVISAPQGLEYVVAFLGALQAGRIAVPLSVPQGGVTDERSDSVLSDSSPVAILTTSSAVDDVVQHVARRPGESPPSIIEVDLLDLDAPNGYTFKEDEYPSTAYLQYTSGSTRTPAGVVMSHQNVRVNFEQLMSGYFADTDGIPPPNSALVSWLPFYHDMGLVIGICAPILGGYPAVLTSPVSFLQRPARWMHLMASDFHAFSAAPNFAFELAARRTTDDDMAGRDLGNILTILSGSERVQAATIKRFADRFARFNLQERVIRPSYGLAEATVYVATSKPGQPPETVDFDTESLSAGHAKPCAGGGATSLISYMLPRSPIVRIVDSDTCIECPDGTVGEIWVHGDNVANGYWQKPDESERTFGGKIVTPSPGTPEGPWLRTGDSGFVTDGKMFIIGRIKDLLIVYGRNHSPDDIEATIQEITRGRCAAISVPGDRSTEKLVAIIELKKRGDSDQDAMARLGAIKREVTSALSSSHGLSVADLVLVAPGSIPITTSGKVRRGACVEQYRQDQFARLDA
# [2] = biological target: T2, Protein RecA (Mycobacterium tuberculosis, UniProt P9WHJ3); assay: Fluorescence Cell-Free Homogeneous Dose Retest to Identify Inhibitors of RecA-Intein Splicing Activity. [Related pubchem assays (depositor defined):AID2097, AID2223, AID489010, AID492950]; type: functional
# T2 sequence (P9WHJ3 whole entry): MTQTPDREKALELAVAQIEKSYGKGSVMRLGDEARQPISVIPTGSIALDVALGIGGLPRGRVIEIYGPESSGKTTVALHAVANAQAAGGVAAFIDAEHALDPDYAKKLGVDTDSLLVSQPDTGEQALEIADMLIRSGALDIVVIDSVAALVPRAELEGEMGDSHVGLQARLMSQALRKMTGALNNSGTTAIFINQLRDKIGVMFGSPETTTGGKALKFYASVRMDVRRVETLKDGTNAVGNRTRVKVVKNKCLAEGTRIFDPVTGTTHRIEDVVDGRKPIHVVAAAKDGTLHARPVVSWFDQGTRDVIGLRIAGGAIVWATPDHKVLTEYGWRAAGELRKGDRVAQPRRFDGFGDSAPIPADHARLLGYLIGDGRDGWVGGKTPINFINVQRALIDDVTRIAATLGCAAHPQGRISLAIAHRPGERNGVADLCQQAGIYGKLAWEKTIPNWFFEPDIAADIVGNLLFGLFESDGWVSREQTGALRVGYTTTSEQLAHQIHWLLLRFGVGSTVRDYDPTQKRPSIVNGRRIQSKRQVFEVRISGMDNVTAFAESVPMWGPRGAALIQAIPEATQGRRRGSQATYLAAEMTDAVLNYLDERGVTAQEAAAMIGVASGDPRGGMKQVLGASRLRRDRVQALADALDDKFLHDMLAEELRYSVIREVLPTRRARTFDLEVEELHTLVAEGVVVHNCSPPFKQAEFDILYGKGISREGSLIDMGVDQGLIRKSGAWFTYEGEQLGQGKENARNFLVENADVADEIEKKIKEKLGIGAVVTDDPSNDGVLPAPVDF
# [3] = system: HEK293; assay: cells; type: functional, cell-based; conditions: Homo sapiens
# [4] = system: HEK293; assay: NOD2 signaling inhibitors in MDP-stimulated cells, cell-based, uHTS, luminescence (AID 2001); type: functional; conditions: Homo sapiens
# [5] = system: INS1; assay: beta cell apoptosis inhibitors, cytokine rescue, dose response, luminescence, retest (AID 449756); type: functional, cell-based; conditions: Rattus norvegicus;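 further: cell death triggered by IL-1 beta plus TNF-alpha plus IFN-gamma mixture; protective hits raise ATP signal compared with cytokine alone wells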
# [6] = system: HEK293; assay: cells; type: functional, cell-based; conditions: Homo sapiens; remark: listed apart in the source
# [7] = system: HEK293; assay: NOD1 signaling inhibitors, primary screen, cell-based, luminescence, uHTS (AID 1578); type: functional; conditions: Homo sapiens
# [8] = biological target: T3, Replicative DNA helicase DnaB (Mycobacterium tuberculosis, UniProt P9WMR3); assay: DnaB intein splicing inhibitors, dose response, biochemical, cell-free fluorescence (AID 449749); type: functional
# T3 sequence (P9WMR3 whole entry): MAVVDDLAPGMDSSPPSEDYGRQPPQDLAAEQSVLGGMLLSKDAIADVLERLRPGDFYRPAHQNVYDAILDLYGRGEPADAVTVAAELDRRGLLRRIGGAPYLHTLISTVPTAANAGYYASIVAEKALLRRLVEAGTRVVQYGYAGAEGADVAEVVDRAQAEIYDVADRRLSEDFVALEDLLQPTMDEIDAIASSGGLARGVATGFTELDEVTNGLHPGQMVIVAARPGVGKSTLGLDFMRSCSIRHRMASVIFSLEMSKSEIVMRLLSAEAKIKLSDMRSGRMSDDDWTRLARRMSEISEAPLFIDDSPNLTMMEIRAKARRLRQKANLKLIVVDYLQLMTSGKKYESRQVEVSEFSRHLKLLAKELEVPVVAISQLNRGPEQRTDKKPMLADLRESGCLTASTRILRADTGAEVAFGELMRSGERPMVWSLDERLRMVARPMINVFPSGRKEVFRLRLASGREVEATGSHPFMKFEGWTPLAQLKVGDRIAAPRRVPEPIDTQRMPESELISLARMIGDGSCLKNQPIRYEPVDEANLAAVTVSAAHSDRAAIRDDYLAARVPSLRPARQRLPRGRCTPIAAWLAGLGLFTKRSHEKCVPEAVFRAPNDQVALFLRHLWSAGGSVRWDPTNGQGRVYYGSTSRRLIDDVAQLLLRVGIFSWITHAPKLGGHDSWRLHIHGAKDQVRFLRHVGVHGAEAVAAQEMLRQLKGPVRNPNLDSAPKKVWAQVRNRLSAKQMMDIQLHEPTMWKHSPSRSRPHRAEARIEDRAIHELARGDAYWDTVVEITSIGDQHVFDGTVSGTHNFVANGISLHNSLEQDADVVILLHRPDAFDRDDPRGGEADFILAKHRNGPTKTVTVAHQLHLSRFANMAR
# [9] = biological target: Protein Wnt-3a (Mus musculus, UniProt P27467); assay: Wnt3a-driven reporter signaling inhibition, dose response, selectivity assay for Gli-SUFU antagonist project, Wnt-LIGHT cells, luminescence (AID 651570); type: functional; conditions: read-out: IC50_Mean;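 further: Wnt-LIGHT reporter cells stimulated with conditioned medium from Wnt3a-producing cells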
# Sequence of Protein Wnt-3a (P27467 whole entry): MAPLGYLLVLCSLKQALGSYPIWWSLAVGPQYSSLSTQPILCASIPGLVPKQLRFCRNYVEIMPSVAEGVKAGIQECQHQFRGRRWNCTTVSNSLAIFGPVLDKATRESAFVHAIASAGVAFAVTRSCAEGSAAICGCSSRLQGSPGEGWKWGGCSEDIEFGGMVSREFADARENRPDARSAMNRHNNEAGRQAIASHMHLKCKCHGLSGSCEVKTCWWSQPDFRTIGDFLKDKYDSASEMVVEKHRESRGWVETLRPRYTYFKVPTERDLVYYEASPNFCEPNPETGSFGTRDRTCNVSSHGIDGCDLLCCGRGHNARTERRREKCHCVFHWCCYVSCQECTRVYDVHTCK
# [10] = cytotoxicity in HEK-293T cells, dose response, cytotoxicity control for TCR NF-kB inhibitor project, luminescence, T-cell screen hits (AID 489026); type: functional, cell-based;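 further: cells exposed to compound about 14 hours before the viability readout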
# [11] = control 3'UTR Renilla luciferase suppression, dose response, counter-screen for Shn3 inhibitor project, cell-based, Clone20-Shn3RL, cherry-picked (AID 624133); type: functional
# [12] = Shn3 3'UTR reporter inhibitors, dose response, cell-based, Clone20 osteoblasts, firefly luciferase, cherry-picked (AID 624132); type: functional;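 further: firefly luciferase luminescence from reporter carrying the Shn3 3'UTR in osteoblasts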
# [13] = biological target: T4, Sentrin-specific protease 1 (Homo sapiens, UniProt Q9P0U3); assay: potency of human SENP1 inhibitors, dose response, biochemical, kinetic FRET (AID 651697); type: functional; conditions: read-out: IC50_Mean
# T4 sequence (Q9P0U3 whole entry): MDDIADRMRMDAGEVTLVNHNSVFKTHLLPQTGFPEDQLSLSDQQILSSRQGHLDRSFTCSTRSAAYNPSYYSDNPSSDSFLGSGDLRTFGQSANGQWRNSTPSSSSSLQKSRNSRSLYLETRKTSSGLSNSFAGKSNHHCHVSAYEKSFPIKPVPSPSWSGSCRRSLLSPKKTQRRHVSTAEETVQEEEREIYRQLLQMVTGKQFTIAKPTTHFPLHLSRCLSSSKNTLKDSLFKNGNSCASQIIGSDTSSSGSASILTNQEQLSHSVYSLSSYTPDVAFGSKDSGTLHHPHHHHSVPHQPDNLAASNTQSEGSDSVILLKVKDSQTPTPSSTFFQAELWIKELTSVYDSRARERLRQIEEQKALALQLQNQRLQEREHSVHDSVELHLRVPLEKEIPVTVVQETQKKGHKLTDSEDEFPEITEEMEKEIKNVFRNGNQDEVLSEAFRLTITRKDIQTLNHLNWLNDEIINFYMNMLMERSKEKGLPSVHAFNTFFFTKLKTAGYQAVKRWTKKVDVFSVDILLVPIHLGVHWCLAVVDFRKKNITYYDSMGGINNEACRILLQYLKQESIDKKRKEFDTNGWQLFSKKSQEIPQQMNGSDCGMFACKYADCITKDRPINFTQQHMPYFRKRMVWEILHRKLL
# [14] = biological target: T4, Sentrin-specific protease 1; assay: Dose response confirmation of small molecule inhibitors of the catalytic domain of the SUMO protease, SENP1 in a FRET assay.; type: functional; conditions: read-out: IC50_Mean
# [15] = intracellular Trypanosoma cruzi inhibitors in host cells – cell-based, plate reader, cherry-pick samples, set 3, dose response (AID 651818); type: functional;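 further: compounds incubated with infected cells for about four days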
smiles,measurement,setting,value
O=C(COc1ncnc2c1cnn2-c1ccccc1)Nc1ccc(S(=O)(=O)N2CCCCC2)cc1,AC50,[1],> 100 µM (inactive)
CCc1ccccc1NC(=O)CN(C)C(=O)CSc1nnc(Nc2cccc(C)c2C)s1,AC50,[1],4.79 µM (active)
O=C(C(Cl)Cl)N1c2ccccc2OCC1c1ccccc1 (configuration not stated),EC50,[2],1.25 µM (active)
same,IC50,[3],16.9 µM (active)
same,IC50,[4],> 20 µM (inactive)
same,AC50,[5],8.54 µM (active)
same,IC50,[6],> 20 µM (inactive)
same,EC50,[7],13.8 µM (active)
same,AC50,[8],10 µM (active)
CC(C)(C)OC(=O)NCCCCCc1cn(CC(=O)NCCCCCCCCCCC(=O)N2CCN(C(=O)OC(C)(C)C)CC2)nn1,IC50,[9],21.9 µM (inactive)
same,IC50,[10],> 80 µM (inactive)
Cc1cccc(CCN2C(N(C)C)=NC[C@@H]2CC(C)C)c1,IC50,[9],9.13 µM (active)
same,AC50,[11],8.04 µM (active)
same,AC50,[12],1.45 µM (active)
COCCNc1nc2c(c(=O)n(C)c(=O)n2C)n1Cc1cccc(C(F)(F)F)c1,IC50,[9],5.24 µM (active)
same,AC50,[5],6.6 µM (active)
COc1ccc(/C=C2\CCCc3c2nc2ccc(C)cc2c3C(=O)O)cc1O,AC50,[1],79.3 µM (active)
Cn1nc(CC(=O)NCc2ccc(C(F)(F)F)cc2)c2ccccc2c1=O,IC50,[9],1.09 µM (active)
COc1cc(O)c(C=Nc2ccccc2NS(=O)(=O)c2ccc(C)cc2)c(OC)c1,IC50,[13],16.1 µM (active)
same,IC50,[14],15.2 µM (active)
C/C(=N\Nc1ccc(Cl)nn1)c1ccccc1O,IC50,[9],50 µM (inactive)
C[C@@H]1CN([C@@H](C)CO)C(=O)Cc2cc(NC(=O)Nc3cccc4ccccc34)ccc2O[C@@H]1CN(C)Cc1ccc(Cl)c(Cl)c1,AC50,[15],3.21 µM (active)
